Structure (SMILES) | melting point [°C] | boiling point [°C] | log10 Henry constant (atm·m³/mol) | log10 Koc (L/kg) | log10 vapour pressure (mmHg) | ready biodegradability | log10 Koa
S=C=Nc1cccc2ccccc12 | 58 |  |  |  |  |  | 
O=C(O)C1C(c2ccccc2)C(C(=O)O)C1c1ccccc1 (centres undefined) | 228 |  |  |  |  |  | 
CCCOc1ccccc1 | -27 | 190 |  |  |  |  | 
CC(=O)OO[N+](=O)[O-] |  | 106 | -3.56 |  |  |  | 
BrCCCc1ccccc1 |  | 220 |  |  |  |  | 
COC(=O)c1ccccc1C(=O)OC | 5.5 | 284 |  | 1.6 | -2.51 | readily biodegradable | 
CCC(C)(C)Cl | -73.5 | 85.5 |  |  |  |  | 
c1ccc(-c2nc3ccccc3o2)cc1 | 103 |  |  |  |  |  | 
Nc1ccncc1 | 158 | 273 |  |  |  | not readily biodegradable | 
CC(=O)C(C)(C)C | -52.5 | 106 |  |  | 1.5 |  | 
CCCSSCCC | -85.6 | 194 |  |  | -0.291 |  | 
C=CCC(O)C=C (centres undefined) |  | 134 |  |  |  |  | 
c1ccc(N(c2ccccc2)c2ccccc2)cc1 | 127 | 365 |  | 2.26 |  |  | 
c1ccc(C2(N3CCCCC3)CCCCC2)cc1 | 46.5 |  |  |  |  |  | 
O=C1CCCC(=O)O1 | 56.3 | 287 |  |  | -2.52 |  | 
Cc1ccc(C(=O)O)o1 | 110 |  |  |  |  |  | 
CC1=CC(=O)c2c(O)cccc2C1=O | 78.5 |  |  |  |  |  | 
CCCCCCCCCCCCCCCC1CCCCC1 | 29 | 373 |  |  | -6.46 |  | 
CCOC(=O)C(C(=O)OCC)=C(C)C |  | 176 |  |  |  |  | 
c1ccc(-c2cccc(-c3ccccn3)n2)nc1 | 90 |  |  |  |  |  | 
CCC(=O)C=Cc1ccccc1 | 38.5 |  |  |  |  |  | 
Clc1c(Cl)c(Cl)c2c(oc3c(Cl)c(Cl)c(Cl)c(Cl)c32)c1Cl | 258 |  |  |  | -11.4 |  | 11.9
O=C(O)CCC(=O)O | 188 |  |  |  | -6.72 | readily biodegradable | 

Structure (SMILES) | melting point [°C] | boiling point [°C] | log10 Henry constant (atm·m³/mol) | log10 Koc (L/kg) | log10 vapour pressure (mmHg) | ready biodegradability | log10 Koa
CCOc1cccc(OCC)c1 | 12.4 | 235 |  |  |  |  | 
COc1cc(C=CC(=O)O)ccc1O |  |  |  |  |  | readily biodegradable | 
COC(=O)c1ccc(OC)c(OC)c1 | 60.8 | 283 |  |  |  |  | 
C/C=C/Cl | -117 | 35.2 |  |  | 2.71 |  | 
C=CCCCCCCC | -81.3 | 147 |  |  | 0.732 | not readily biodegradable | 3.83
Cn1ccccc1=S | 89.5 |  |  |  |  |  | 
O=C(O)Cc1c(F)c(F)c(F)c(F)c1F | 109 |  |  |  |  |  | 
O=c1[nH]cc(F)c(=O)[nH]1 | 283 |  |  |  |  |  | 
CCOC(=O)c1cn2nc(OP(=S)(OCC)OCC)cc2nc1C | 51 |  |  |  |  |  | 
O=C(O)c1ccc2ccccc2c1 | 186 |  |  |  | -5.18 | readily biodegradable | 
Cc1cc(O)c(C2CC3CCC2(C)C3(C)C)cc1C (centres undefined) | 95 |  |  |  |  |  | 
O=C(O)CCCCc1ccccc1 | 57.5 |  |  |  |  |  | 
O=S1CCCC1 |  | 236 |  |  |  |  | 
CN1CCN(C2=Nc3cc(Cl)ccc3Nc3ccccc32)CC1 | 184 |  |  |  |  |  | 
CC(=O)c1ccc(O)c(O)c1O | 173 |  |  |  |  |  | 
CCCCC(CC)COC(=O)CCC (centres undefined) |  |  |  |  |  | readily biodegradable | 
Cc1cc(C)cc(N)c1 | 9.8 | 220 |  |  |  | not readily biodegradable | 
N#C[S-].[K+] | 173 |  |  |  |  |  | 
Cc1cc2ccccc2cn1 | 68 | 249 |  |  |  |  | 
O=S(=O)(Sc1ccccc1)c1ccc(Cl)cc1 | -86.8 |  |  |  |  |  | 
CCOC(=O)C(CC)C(C)=O (centres undefined) |  | 198 |  |  |  |  | 
CC[C@]12CCCN3CCc4c(n(c5ccccc45)[C@@](O)(C(=O)OC)C1)[C@@H]32 | 232 |  |  |  |  |  | 
C=CCC | -185 | -6.2 | -0.633 |  | 3.35 |  | 

Structure (SMILES) | melting point [°C] | boiling point [°C] | log10 Henry constant (atm·m³/mol) | log10 Koc (L/kg) | log10 vapour pressure (mmHg) | ready biodegradability | log10 Koa
CCC(CC)COC(C)=O |  | 162 |  |  |  |  | 
BrC=C(Br)Br |  | 164 |  |  |  |  | 
Cc1ccccc1S(N)(=O)=O |  |  |  |  |  | not readily biodegradable | 
BrC(Br)Br | 8 | 149 | -3.27 | 2.06 | 0.732 | not readily biodegradable | 
ClC(Cl)(Cl)CC(Cl)(Cl)Cl | -27 | 206 |  |  |  |  | 
O=c1c2cc(F)ccc2nc(-n2cncn2)n1-c1ccc(Cl)cc1Cl | 192 |  | -10.7 |  | -10.3 |  | 
c1ccc2c(c1)ccc1c3ccccc3sc21 | 189 |  |  |  | -6.94 |  | 
CCOC(=O)C1CC1 |  | 134 |  |  |  |  | 
CCN(CC)CCOC(=O)C(O)(c1ccccc1)c1ccccc1 | 51 |  |  |  |  |  | 
CCCCOC=O | -91.5 | 106 |  |  | 1.46 |  | 
CN1C(=O)OC(C)(C)C1=O | 46 |  |  |  |  |  | 
C[n+]1cc2c3c(ccc2c2ccc4cc5c(cc4c21)OCO5)OCO3 | 266 |  |  |  |  |  | 
CCCCCCCCCC=O | -5 | 208 | -2.74 |  | -0.987 | readily biodegradable | 
COc1cc(Cl)cc(Cl)c1 | 41 |  |  |  |  |  | 
Clc1cc2cccc(Cl)c2c(Cl)c1Cl |  |  |  |  |  |  | 8.65
Cc1ccc(S(=O)(=O)C2(C(=O)OC(C)C)CC2)cc1 | 65.5 |  |  |  |  |  | 
COc1ccc(O[C@@H]2O[C@H](CO)[C@H](O)[C@H](O)[C@H]2O)cc1 | 159 |  |  |  |  |  | 
CC1=C(/C=C/C(C)=C/C=C/C(C)=C/C=C/C=C(C)/C=C/C=C(C)/C=C/C2=C(C)C(=O)CCC2(C)C)C(C)(C)CCC1 | 179 |  |  |  |  |  | 
CCC(=O)CC(C)CC (centres undefined) |  | 159 |  |  |  | readily biodegradable | 
O=[N+]([O-])c1ccc(-c2ccccc2)cc1 | 114 | 340 |  |  |  |  | 
Nc1cc2c3ccccc3ccc2c2ccccc12 | 210 |  |  | 5.21 |  |  | 
